# Reference: ChEMBL document CHEMBL1201862, “PubChem BioAssay data set” (2004)
#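 96-well plates; 48 h exposure; 5 concentrations. Endpoints by linear interpolation between flanking doses. Not reached: highest tested concentration assigned. Abbreviation: GI50, concentration required for 50% inhibition of growth.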 Active and inactive are the calls of the source. No stated cut-off is given here; in the data, active = GI50 up to about 1.1 µM and inactive = higher.
# What was measured:
# Assay in all cases: NCI anticancer screen, dose series, 48 h
# 786-0 = test system: 786-0
# A498 = test system: A498
# A549 = test system: A549
# ACHN = test system: ACHN
# BT-549 = test system: BT-549
# CAKI-1 = test system: CAKI-1
# CCRF-CEM = test system: CCRF-CEM
# COLO 205 = test system: COLO 205
# DU-145 = test system: DU-145
# EKVX = test system: EKVX
# HCC 2998 = test system: HCC 2998
# HCT-116 = test system: HCT-116
# HCT-15 = test system: HCT-15
# HL-60 = test system: HL-60
# HOP-62 = test system: HOP-62
# HOP-92 = test system: HOP-92
# HT-29 = test system: HT-29
# Hs-578T = test system: Hs-578T
# IGROV-1 = test system: IGROV-1
# K562 = test system: K562
# KM12 = test system: KM12
# LOX IMVI = test system: LOX IMVI
# M14 = test system: M14
# MCF7 = test system: MCF7
# MDA-MB-231 = test system: MDA-MB-231
# MDA-MB-435 = test system: MDA-MB-435
# MDA-N = test system: MDA-N
# MOLT-4 = test system: MOLT-4
# Malme-3M = test system: Malme-3M
# NCI-H226 = test system: NCI-H226
# NCI-H23 = test system: NCI-H23
# NCI-H460 = test system: NCI-H460
# NCI-H522 = test system: NCI-H522
# NCI/ADR-RES = test system: NCI/ADR-RES
# OVCAR-3 = test system: OVCAR-3
# OVCAR-4 = test system: OVCAR-4
# OVCAR-5 = test system: OVCAR-5
# OVCAR-8 = test system: OVCAR-8
# PC-3 = test system: PC-3
# RPMI-8226 = test system: RPMI-8226
# RXF 393 = test system: RXF 393
# SF-268 = test system: SF-268
# SF-295 = test system: SF-295
# SF-539 = test system: SF-539
# SK-MEL-28 = test system: SK-MEL-28
# SK-MEL-2 = test system: SK-MEL-2
# SK-MEL-5 = test system: SK-MEL-5
# SK-OV-3 = test system: SK-OV-3
# SN12C = test system: SN12C
# SNB-19 = test system: SNB-19
# SNB-75 = test system: SNB-75
# SR = test system: SR
# SW-620 = test system: SW-620
# T47D = test system: T47D
# TK-10 = test system: TK-10
# U-251 = test system: U-251
# UACC-257 = test system: UACC-257
# UACC-62 = test system: UACC-62
# UO-31 = test system: UO-31
compound,measurement,setting,value
NCC(O)CNC(=O)c1ccc(-c2ccc(-c3ccc(C(=O)NCC(O)CN)cc3)o2)cc1 (centres undefined),GI50,786-0,23.3 µM (inactive)
same,GI50,A498,25 µM (inactive)
same,GI50,A549,37.4 µM (inactive)
same,GI50,ACHN,45.9 µM (inactive)
same,GI50,BT-549,32.7 µM (inactive)
same,GI50,CAKI-1,81.7 µM (inactive)
same,GI50,CCRF-CEM,> 100 µM (inactive)
same,GI50,COLO 205,81.8 µM (inactive)
same,GI50,DU-145,22 µM (inactive)
same,GI50,EKVX,27.7 µM (inactive)
same,GI50,HCC 2998,25.1 µM (inactive)
same,GI50,HCT-116,22.4 µM (inactive)
same,GI50,HCT-15,57.8 µM
same,GI50,HL-60,> 100 µM (inactive)
same,GI50,HOP-62,25.3 µM (inactive)
same,GI50,HOP-92,22.2 µM (inactive)
same,GI50,HT-29,> 100 µM (inactive)
same,GI50,Hs-578T,25.3 µM (inactive)
same,GI50,IGROV-1,30.8 µM (inactive)
same,GI50,K562,> 100 µM (inactive)
same,GI50,KM12,51.2 µM (inactive)
same,GI50,LOX IMVI,45 µM (inactive)
same,GI50,M14,> 100 µM (inactive)
same,GI50,MCF7,32.8 µM (inactive)
same,GI50,MDA-MB-231,24.5 µM (inactive)
same,GI50,MDA-MB-435,> 100 µM (inactive)
same,GI50,MDA-N,> 100 µM (inactive)
same,GI50,MOLT-4,> 100 µM (inactive)
same,GI50,Malme-3M,21.7 µM (inactive)
same,GI50,NCI-H226,22.6 µM (inactive)
same,GI50,NCI-H23,36.1 µM (inactive)
same,GI50,NCI-H460,59 µM (inactive)
same,GI50,NCI-H522,33.3 µM (inactive)
same,GI50,NCI/ADR-RES,> 100 µM (inactive)
same,GI50,OVCAR-3,21.4 µM (inactive)
same,GI50,OVCAR-4,36.5 µM (inactive)
same,GI50,OVCAR-5,> 100 µM (inactive)
same,GI50,OVCAR-8,29.6 µM (inactive)
same,GI50,PC-3,21.2 µM (inactive)
same,GI50,RPMI-8226,> 100 µM (inactive)
same,GI50,RXF 393,18.9 µM (inactive)
same,GI50,SF-268,28.2 µM (inactive)
same,GI50,SF-295,23.5 µM (inactive)
same,GI50,SF-539,19.1 µM (inactive)
same,GI50,SK-MEL-28,> 100 µM (inactive)
same,GI50,SK-MEL-2,53.7 µM (inactive)
same,GI50,SK-MEL-5,33.3 µM (inactive)
same,GI50,SK-OV-3,23.9 µM (inactive)
same,GI50,SN12C,25.1 µM (inactive)
same,GI50,SNB-19,22 µM (inactive)
same,GI50,SNB-75,25.8 µM (inactive)
same,GI50,SR,67.5 µM (inactive)
same,GI50,SW-620,> 100 µM (inactive)
same,GI50,T47D,34.6 µM (inactive)
same,GI50,TK-10,18 µM (inactive)
same,GI50,U-251,21.5 µM (inactive)
same,GI50,UACC-257,> 100 µM (inactive)
same,GI50,UACC-62,41.8 µM (inactive)
same,GI50,UO-31,49.2 µM (inactive)
